Test results: US5416222A, “3-pyrrolidine methanamines wherein the alpha-carbon is substituted by 1 or 2 lower alkyl groups which are intermediates for pyridone-carboxylic acid derivatives” (Daiichi Seiyaku Co., Ltd., priority 1985, dated 1995)
In brackets after ≈: the same amount, converted by molar mass.

Legend:
E. coli, NIHJ = assay: antimicrobial activity, MIC, standard process of Japan Society of Chemotherapy; type: cell-based; conditions: for MIC: Escherichia coli, read-out: minimum growth inhibitory concentration (MIC)
Protocol: (§1) The antimicrobial activities of the compounds of the present invention were determined according to a standard process designated by the Japan Society of Chemotherapy and the minimum growth inhibitory concentrations (MIC) (μg/ml) the compounds were determined.

Pr. mirabilis, IF03849 = assay: as above; type: cell-based; conditions: for MIC: Proteus mirabilis, IF03849, Pr. mirabilis, read-out: minimum growth inhibitory concentration (MIC)
Protocol: as §1

Pr. vulgaris, 3167 = assay: as above; type: cell-based; conditions: for MIC: Proteus vulgaris, 3167, Pr. vulgaris, read-out: minimum growth inhibitory concentration (MIC)
Protocol: as §1

Ps. aeruginosa, 2063 = assay: as above; type: cell-based; conditions: for MIC: Pseudomonas aeruginosa, 2063, Ps. aeruginosa, read-out: minimum growth inhibitory concentration (MIC)
Protocol: as §1

Ps. aeruginosa, 2128 = assay: as above; type: cell-based; conditions: for MIC: Pseudomonas aeruginosa, 2128, Ps. aeruginosa, read-out: minimum growth inhibitory concentration (MIC)
Protocol: as §1

Ps. cepacia, IID1340 = assay: as above; type: cell-based; conditions: for MIC: Burkholderia cepacia, IID1340, Ps. cepacia, read-out: minimum growth inhibitory concentration (MIC)
Protocol: as §1

Ps. maltophilia, IID1275 = assay: as above; type: cell-based; conditions: for MIC: Stenotrophomonas maltophilia, IID1275, Ps. maltophilia, read-out: minimum growth inhibitory concentration (MIC)
Protocol: as §1

S. aureus, 209P = assay: as above; type: cell-based; conditions: for MIC: Staphylococcus aureus, read-out: minimum growth inhibitory concentration (MIC)
Protocol: as §1

S. epidermidis, 56500 = assay: as above; type: cell-based; conditions: for MIC: Staphylococcus epidermidis, 56500, S. epidermidis, read-out: minimum growth inhibitory concentration (MIC)
Protocol: as §1

Ser. marcescens, 13001 = assay: as above; type: cell-based; conditions: for MIC: Serratia marcescens, 13001, Ser. marcescens, read-out: minimum growth inhibitory concentration (MIC)
Protocol: as §1

Sh. flexneri, 2a5503 = assay: as above; type: cell-based; conditions: for MIC: Shigella flexneri, read-out: minimum growth inhibitory concentration (MIC)
Protocol: as §1

[1] = system: Str. faecalis, ATCC 19433; assay: as above; type: cell-based; conditions: for MIC: Enterococcus faecalis, ATCC19433, Str. faecalis, read-out: minimum growth inhibitory concentration (MIC)
Protocol: as §1

Str. pyogenes, G-36 = assay: as above; type: cell-based; conditions: for MIC: Streptococcus pyogenes, G36, Str. pyogenes, read-out: minimum growth inhibitory concentration (MIC)
Protocol: as §1

physchem = type: physicochemical; conditions: water
Protocol: (§2) The water-solubility and acute toxicity of the compounds of the present invention and the comparative compounds, were measured. The results obtained are shown hereunder. The water-solubility was measured by the following method.
(i) Preparation of standard solution
About 400 μg of the sample to be measured was accurately weighed (the weight was defined as W μg), and 0.1N NaOH solution was added thereto to bring the whole volume to 50 ml. The UV absorbance of a given amount of the solution was measured and the measured absorbance was defined as A1.
(ii) Preparation of sample to be measured
Distilled water was added to the sample to be measured (fine powder) in such amount that the sample was not completely dissolved but suspended, and then the suspension was vigorously agitated at room temperature (between 23° and 26° C.) for 30 minutes. Insoluble matter of the sample was removed therefrom by filtration, after which 3 ml sample of the filtrate (satulated aqueous solution of the sample) was taken. 3 ml of 0.2N NaOH solution was added to the filtrate sample to bring the total volume to 6 ml (i.e. the filtrate was diluted to 50% concentration.) To 1 ml of the resulting solution, 0.1N NaOH solution was further added to bring the total volume to 25 ml […]. In this connection, degree of dilution was occasionally changed, depending on degree of UV absorbance. The UV absorbance of the given amount of the solution was measured and the resulting absorbance was defined to as A2. Where the number of dilution is N, water-solubility (s) is obtained from the following equation: [formula]

mouse = assay: acute toxicity to mouse; type: in vivo; conditions: 200 mg/kg; i.v.
Protocol: as §2
*200 mg/kg; i.v, (deaths/total number) As is obvious from the above

[2] = absorption after oral administration to rats; type: in vivo; conditions: rat, 20 mg/kg; for half-life: serum half life, 0.693/Kel; for Cmax / AUC(0-t) at 6 h: serum; for Cmax: 5 rats per group; for AUC(0-t) at 6 h: zero to 6 h, trapezoidal method, read-out: AUC0-6H
Protocol: The compounds of the present invention and the comparative compound were orally given to rats (one group: 5 rats) at a dose of 20 mg/kg to measure the oral absorption of the compounds. The concentration of the compound in the blood of the rat was measured at 15 minutes, 30 minutes, and 1, 2, 3, 4, and 6 hours after administration.
Serum half lives (T1/2) were calculated as 0.693/Kel, where Kel is the elimination rate constant determined by linear regression analysis of the natural logarithm of serum concentration-time data. The area under the serum concentration-versus time curve from zero to 6 h (AUC0-6H) was calculated by the trapezoidal method, The results obtained are as follows: […]

| Structure (SMILES) | MIC (E. coli, NIHJ) | MIC (Pr. mirabilis, IF03849) | MIC (Pr. vulgaris, 3167) | MIC (Ps. aeruginosa, 2063) | MIC (Ps. aeruginosa, 2128) | MIC (Ps. cepacia, IID1340) | MIC (Ps. maltophilia, IID1275) | MIC (S. aureus, 209P) | MIC (S. epidermidis, 56500) | MIC (Ser. marcescens, 13001) | MIC (Sh. flexneri, 2a5503) | MIC [1] | MIC (Str. pyogenes, G-36) | solubility at 0.5 h (physchem) | Acute toxicity to mouse (mouse) | half-life [2] | Cmax [2] | AUC(0-t) at 6 h [2] | further results |
| --- | --- | --- | --- | --- | --- | --- | --- | --- | --- | --- | --- | --- | --- | --- | --- | --- | --- | --- | --- |
| CC(C)(N)C1CCN(c2c(F)cc3c(=O)c(C(=O)O)cn(C4CC4)c3c2F)C1 (stereo not drawn) [Example 11, 7-[3-(1-Amino-1-methyl)ethyl-1-pyrrolidinyl]-1-cyclopropyl-6,8-difluoro-1,4-dihydro-4-oxoquinoline-3-carboxylic acid] | ≤ 0.05 µg/mL | 0.1 µg/mL (≈ 0.255 µM) | ≤ 0.05 µg/mL | 0.78 µg/mL (≈ 1.99 µM) | 0.2 µg/mL (≈ 0.511 µM) | 0.78 µg/mL (≈ 1.99 µM) | 0.1 µg/mL (≈ 0.255 µM) | ≤ 0.05 µg/mL | ≤ 0.05 µg/mL | 0.1 µg/mL (≈ 0.255 µM) | ≤ 0.05 µg/mL | ≤ 0.05 µg/mL | ≤ 0.05 µg/mL | 200 µg/mL (≈ 511 µM) | 0/5 | 136 min | 2100 ng/mL | 6430 ng·h/mL | – |
| CC(C)(N)C1CCN(c2nc3c(cc2F)c(=O)c(C(=O)O)cn3C2CC2)C1 (stereo not drawn) [Example 13, 7-[3-(1-Amino-1-methyl)ethyl-1-pyrrolidinyl]-1-cyclo-propyl-6-difluoro-1,4-dihydro-4-oxo-1,8-naphthyridine-3-carboxylic acid] | ≤ 0.05 µg/mL | 0.39 µg/mL (≈ 1.04 µM) | 0.1 µg/mL (≈ 0.267 µM) | 0.39 µg/mL (≈ 1.04 µM) | 0.2 µg/mL (≈ 0.534 µM) | 0.78 µg/mL (≈ 2.08 µM) | 0.2 µg/mL (≈ 0.534 µM) | ≤ 0.05 µg/mL | ≤ 0.05 µg/mL | 0.2 µg/mL (≈ 0.534 µM) | ≤ 0.05 µg/mL | 0.2 µg/mL (≈ 0.534 µM) | 0.1 µg/mL (≈ 0.267 µM) | 2000 µg/mL (≈ 5340 µM) | 1/5 | 145 min | 2140 ng/mL | 7950 ng·h/mL | – |
| CCC(N)C1CCN(c2c(F)cc3c(=O)c(C(=O)O)cn(CC)c3c2F)C1 (single isomer, unassigned) [Example 20, 1-ethyl-6,8-difluoro-7-[3-(1-aminopropyl)-1-pyrrolidinyl]-1,4-dihydro-4-oxoquinoline-3-carboxylic acid] | ≤ 0.05 µg/mL | 0.1 µg/mL (≈ 0.264 µM) | ≤ 0.05 µg/mL | 0.39 µg/mL (≈ 1.03 µM) | 0.2 µg/mL (≈ 0.527 µM) | 0.39 µg/mL (≈ 1.03 µM) | 0.2 µg/mL (≈ 0.527 µM) | ≤ 0.05 µg/mL | ≤ 0.05 µg/mL | 0.1 µg/mL (≈ 0.264 µM) | ≤ 0.05 µg/mL | ≤ 0.05 µg/mL | ≤ 0.05 µg/mL | – | – | – | – | – | – |
| CCn1cc(C(=O)O)c(=O)c2cc(F)c(N3CCC(C(C)(C)N)C3)c(F)c21 (stereo not drawn) [Example 12, 7-[3-(1-amino-1-methyl)ethyl-1-pyrrolidinyl]-1-ethyl-6,8-difluoro-1,4-dihydro-4-oxoquinoline-3-carboxylic acid] | ≤ 0.05 µg/mL | 0.39 µg/mL (≈ 1.03 µM) | 0.2 µg/mL (≈ 0.527 µM) | 1.56 µg/mL (≈ 4.11 µM) | 0.39 µg/mL (≈ 1.03 µM) | 1.56 µg/mL (≈ 4.11 µM) | 0.39 µg/mL (≈ 1.03 µM) | ≤ 0.05 µg/mL | 0.1 µg/mL (≈ 0.264 µM) | 0.39 µg/mL (≈ 1.03 µM) | ≤ 0.05 µg/mL | 0.1 µg/mL (≈ 0.264 µM) | 0.1 µg/mL (≈ 0.264 µM) | – | – | – | – | – | – |
| CC(N)C1CCN(c2nc3c(cc2F)c(=O)c(C(=O)O)cn3C2CC2)C1 (stereo not drawn) [Example 19] | – | – | – | – | – | – | – | – | – | – | – | – | – | – | – | – | – | – | minimum growth inhibitory concentration (MIC) (E. coli, NIHJ): ≤ 0.05 µg/mL; minimum growth inhibitory concentration (MIC) (Pr. mirabilis, IF03849; Pr. mirabilis): 0.10 µg/mL; minimum growth inhibitory concentration (MIC) (Pr. vulgaris, 3167; Pr. vulgaris): ≤ 0.05 µg/mL; minimum growth inhibitory concentration (MIC) (Ps. aeruginosa, 2063; Ps. aeruginosa): 0.20 µg/mL; minimum growth inhibitory concentration (MIC) (Ps. aeruginosa, 2128; Ps. aeruginosa): ≤ 0.05 µg/mL; minimum growth inhibitory concentration (MIC) (Ps. cepacia, IID1340; Ps. cepacia): 0.39 µg/mL; minimum growth inhibitory concentration (MIC) (Ps. maltophilia, IID1275; Ps. maltophilia): 0.20 µg/mL; minimum growth inhibitory concentration (MIC) (S. aureus, 209P): ≤ 0.05 µg/mL; minimum growth inhibitory concentration (MIC) (S. epidermidis, 56500; S. epidermidis): ≤ 0.05 µg/mL; minimum growth inhibitory concentration (MIC) (Ser. marcescens, 13001; Ser. marcescens): ≤ 0.05 µg/mL; minimum growth inhibitory concentration (MIC) (Sh. flexneri, 2a5503): ≤ 0.05 µg/mL; minimum growth inhibitory concentration (MIC) ([1]; Str. faecalis): 0.10 µg/mL; minimum growth inhibitory concentration (MIC) (Str. pyogenes, G-36; Str. pyogenes): 0.20 µg/mL |
